From patent US20210070748A1, “INHIBITORS OF BRUTONS TYROSINE KINASE” (Pharmacyclics LLC, priority 2015, published 2021)

Key:
Assay type in all cases: biochemical
[1] = biological target: T1, TEC (Homo sapiens, UniProt P42680); experiment: Inhibition of a panel of kinases, in vitro HotSpot kinase assay: TEC; settings: D-compounds panel data; 1 μM ATP
T1 sequence (P42680 1-631): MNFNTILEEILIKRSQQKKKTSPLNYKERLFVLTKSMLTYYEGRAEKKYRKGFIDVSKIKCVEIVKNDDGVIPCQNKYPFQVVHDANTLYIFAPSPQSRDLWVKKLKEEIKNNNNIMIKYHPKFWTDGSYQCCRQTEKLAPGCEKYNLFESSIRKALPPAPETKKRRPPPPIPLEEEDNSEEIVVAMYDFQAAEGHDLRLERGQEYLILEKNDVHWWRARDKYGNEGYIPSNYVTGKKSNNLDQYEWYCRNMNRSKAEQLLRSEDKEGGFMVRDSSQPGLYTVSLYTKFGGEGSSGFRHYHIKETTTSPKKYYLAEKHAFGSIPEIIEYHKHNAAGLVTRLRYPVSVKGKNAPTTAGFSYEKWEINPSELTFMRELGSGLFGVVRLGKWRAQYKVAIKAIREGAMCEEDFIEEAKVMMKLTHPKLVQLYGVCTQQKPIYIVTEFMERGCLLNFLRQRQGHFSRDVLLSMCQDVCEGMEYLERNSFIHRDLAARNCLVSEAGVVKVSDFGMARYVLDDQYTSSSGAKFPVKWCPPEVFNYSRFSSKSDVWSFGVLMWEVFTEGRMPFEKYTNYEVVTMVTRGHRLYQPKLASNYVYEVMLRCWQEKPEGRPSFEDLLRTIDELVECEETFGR
Procedure: (§1) The degree of inhibition of a panel of kinases is determined using the in vitro HotSpot kinase assay (purified enzymes, ^33P-ATP, an appropriate substrate and 1 μM ATP).

[2] = biological target: EGFR (Homo sapiens, UniProt P00533); experiment: Inhibition of a panel of kinases, in vitro HotSpot kinase assay: EGFR; settings: D-compounds panel data; 1 μM ATP
Procedure: as §1

[3] = biological target: T2, JAK3 (Homo sapiens, UniProt P52333); experiment: Inhibition of a panel of kinases, in vitro HotSpot kinase assay: JAK3; settings: D-compounds panel data; 1 μM ATP; read-out: IC50 JAK3
T2 sequence (P52333 1-1124): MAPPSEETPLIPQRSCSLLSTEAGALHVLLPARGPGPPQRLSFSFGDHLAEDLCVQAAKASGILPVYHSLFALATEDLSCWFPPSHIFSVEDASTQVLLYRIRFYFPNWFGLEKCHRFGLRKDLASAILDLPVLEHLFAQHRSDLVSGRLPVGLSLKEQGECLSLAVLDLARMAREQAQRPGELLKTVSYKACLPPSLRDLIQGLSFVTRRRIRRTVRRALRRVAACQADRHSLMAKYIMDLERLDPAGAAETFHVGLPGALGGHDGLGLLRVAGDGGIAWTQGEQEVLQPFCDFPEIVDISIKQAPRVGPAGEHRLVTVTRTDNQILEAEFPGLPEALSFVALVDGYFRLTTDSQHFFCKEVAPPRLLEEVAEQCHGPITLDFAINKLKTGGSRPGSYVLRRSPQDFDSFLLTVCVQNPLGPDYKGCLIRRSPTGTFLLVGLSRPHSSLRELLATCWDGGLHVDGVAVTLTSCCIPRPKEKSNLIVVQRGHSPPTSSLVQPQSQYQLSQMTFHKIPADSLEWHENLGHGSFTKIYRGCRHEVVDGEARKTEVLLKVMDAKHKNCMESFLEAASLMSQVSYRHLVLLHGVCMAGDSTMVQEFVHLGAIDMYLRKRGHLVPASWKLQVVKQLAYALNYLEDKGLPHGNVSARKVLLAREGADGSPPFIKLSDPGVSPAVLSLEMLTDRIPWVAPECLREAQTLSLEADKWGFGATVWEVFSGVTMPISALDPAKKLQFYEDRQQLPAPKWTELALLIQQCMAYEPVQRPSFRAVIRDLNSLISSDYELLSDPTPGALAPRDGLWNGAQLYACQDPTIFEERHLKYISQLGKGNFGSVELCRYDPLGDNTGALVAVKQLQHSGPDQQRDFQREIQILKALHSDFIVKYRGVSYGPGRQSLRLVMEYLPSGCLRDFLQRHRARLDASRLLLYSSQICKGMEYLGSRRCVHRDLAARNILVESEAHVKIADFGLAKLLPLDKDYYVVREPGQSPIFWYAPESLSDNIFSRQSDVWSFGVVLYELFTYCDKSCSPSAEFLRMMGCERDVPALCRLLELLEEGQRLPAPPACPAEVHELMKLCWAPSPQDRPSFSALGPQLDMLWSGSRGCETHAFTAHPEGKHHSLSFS

[4] = biological target: SRC (Homo sapiens, UniProt P12931); experiment: Inhibition of a panel of kinases, in vitro HotSpot kinase assay: SRC; settings: D-compounds panel data; 1 μM ATP
Procedure: as §1

[5] = biological target: T3, ITK (Homo sapiens, UniProt Q08881); experiment: Inhibition of a panel of kinases, in vitro HotSpot kinase assay: ITK; settings: D-compounds panel data; 1 μM ATP
T3 sequence (Q08881 1-620): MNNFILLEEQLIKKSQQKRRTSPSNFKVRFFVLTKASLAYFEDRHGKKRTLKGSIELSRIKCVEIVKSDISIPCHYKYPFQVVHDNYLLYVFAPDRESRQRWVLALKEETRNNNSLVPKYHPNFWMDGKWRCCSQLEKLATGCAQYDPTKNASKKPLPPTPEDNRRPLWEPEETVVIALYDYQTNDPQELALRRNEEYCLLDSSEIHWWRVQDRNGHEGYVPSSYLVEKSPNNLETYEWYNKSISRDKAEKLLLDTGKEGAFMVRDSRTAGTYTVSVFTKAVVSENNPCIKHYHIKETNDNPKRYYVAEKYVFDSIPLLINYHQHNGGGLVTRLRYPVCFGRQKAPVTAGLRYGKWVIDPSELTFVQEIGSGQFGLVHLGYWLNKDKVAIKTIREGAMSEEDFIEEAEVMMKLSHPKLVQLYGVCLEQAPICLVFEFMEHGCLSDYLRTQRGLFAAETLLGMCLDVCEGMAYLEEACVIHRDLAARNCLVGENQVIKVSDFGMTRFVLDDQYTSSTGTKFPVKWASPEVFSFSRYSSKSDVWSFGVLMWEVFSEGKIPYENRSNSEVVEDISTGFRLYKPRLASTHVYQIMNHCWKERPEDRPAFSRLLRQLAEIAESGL
Procedure: as §1

SRC, sequence (P12931 whole entry): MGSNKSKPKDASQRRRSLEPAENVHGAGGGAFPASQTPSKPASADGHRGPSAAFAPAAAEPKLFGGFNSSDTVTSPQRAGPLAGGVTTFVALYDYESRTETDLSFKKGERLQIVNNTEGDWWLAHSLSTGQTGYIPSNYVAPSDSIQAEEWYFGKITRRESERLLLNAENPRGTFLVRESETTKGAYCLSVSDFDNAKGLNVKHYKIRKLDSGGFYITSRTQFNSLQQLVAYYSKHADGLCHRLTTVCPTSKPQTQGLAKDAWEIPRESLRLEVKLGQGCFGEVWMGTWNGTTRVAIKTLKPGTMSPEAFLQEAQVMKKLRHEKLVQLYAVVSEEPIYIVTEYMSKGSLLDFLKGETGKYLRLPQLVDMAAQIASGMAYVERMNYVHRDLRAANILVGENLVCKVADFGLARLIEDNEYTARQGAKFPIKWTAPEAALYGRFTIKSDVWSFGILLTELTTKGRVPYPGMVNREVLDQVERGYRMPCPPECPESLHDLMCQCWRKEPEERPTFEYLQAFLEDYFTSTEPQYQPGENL
EGFR, sequence (P00533 25-1210): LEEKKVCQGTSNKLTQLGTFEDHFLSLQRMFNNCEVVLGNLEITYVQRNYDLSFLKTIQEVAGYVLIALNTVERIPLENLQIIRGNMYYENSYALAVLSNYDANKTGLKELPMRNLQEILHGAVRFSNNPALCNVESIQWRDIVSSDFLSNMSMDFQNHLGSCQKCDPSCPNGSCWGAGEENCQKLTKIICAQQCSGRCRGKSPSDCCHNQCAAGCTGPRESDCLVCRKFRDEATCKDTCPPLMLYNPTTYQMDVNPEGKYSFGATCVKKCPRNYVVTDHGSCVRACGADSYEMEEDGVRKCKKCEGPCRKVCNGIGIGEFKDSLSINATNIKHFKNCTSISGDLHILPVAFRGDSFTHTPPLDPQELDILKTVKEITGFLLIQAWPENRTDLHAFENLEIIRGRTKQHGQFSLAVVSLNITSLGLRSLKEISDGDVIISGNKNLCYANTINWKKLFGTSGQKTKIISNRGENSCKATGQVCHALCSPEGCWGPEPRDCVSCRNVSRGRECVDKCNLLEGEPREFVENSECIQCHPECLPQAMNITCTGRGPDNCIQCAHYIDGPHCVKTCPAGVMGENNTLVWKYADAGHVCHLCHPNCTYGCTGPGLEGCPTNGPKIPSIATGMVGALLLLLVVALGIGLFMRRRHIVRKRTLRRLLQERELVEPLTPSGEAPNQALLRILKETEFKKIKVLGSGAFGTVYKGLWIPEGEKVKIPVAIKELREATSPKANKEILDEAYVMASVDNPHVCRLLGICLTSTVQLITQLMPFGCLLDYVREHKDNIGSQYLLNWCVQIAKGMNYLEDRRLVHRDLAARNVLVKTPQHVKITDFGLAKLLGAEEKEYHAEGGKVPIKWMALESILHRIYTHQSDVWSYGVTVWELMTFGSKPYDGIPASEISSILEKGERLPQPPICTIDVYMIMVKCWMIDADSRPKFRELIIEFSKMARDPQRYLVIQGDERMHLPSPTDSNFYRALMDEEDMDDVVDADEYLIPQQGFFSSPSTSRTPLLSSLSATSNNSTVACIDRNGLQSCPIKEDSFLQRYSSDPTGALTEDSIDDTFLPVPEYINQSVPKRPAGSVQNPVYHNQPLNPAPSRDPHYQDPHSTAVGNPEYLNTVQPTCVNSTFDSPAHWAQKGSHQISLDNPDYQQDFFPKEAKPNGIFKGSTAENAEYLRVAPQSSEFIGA

Compound	IC50 [1]	IC50 [2]	IC50 [3]	IC50 [4]	IC50 [5]
C[C@@H]1[C@H](NC(=O)c2ccc3[nH]cnc3c2)CCCN1c1cnc(C(N)=O)c(Nc2cnn(C)c2)n1 [Example D-262, N-[(2R,3R)-1-{5-carbamoyl-6-[(1-methyl-1H-pyrazol-4-yl)amino]pyrazin-2-yl}-2-methylpiperidin-3-yl]-1H-1,3-benzodiazole-5-carboxamide]	≤ 0.01 µM	1 to 10 µM	1 to 10 µM	0.01 to 0.1 µM	0.1 to 1 µM
C[C@@H]1[C@H](NC(=O)c2cc3n(n2)CCC3)CCCN1c1cnc(C(N)=O)c(Nc2cnn(C)c2)n1 [Example D-263, 3-[(1-methyl-1H-pyrazol-4-yl)amino]-5-[(2R,3R)-2-methyl-3-{4H,5H,6H-pyrrolo[1,2-b]pyrazole-2-amido}piperidin-1-yl]pyrazine-2-carboxamide]	≤ 0.01 µM	0.1 to 1 µM	1 to 10 µM	0.01 to 0.1 µM	0.1 to 1 µM
C[C@@H]1[C@H](NC(=O)c2c[nH]c(C3CC3)n2)CCCN1c1cnc(C(N)=O)c(Nc2cnn(C)c2)n1 [Example D-264, 5-[(2R,3R)-3-(2-cyclopropyl-1H-imidazole-4-amido)-2-methylpiperidin-1-yl]-3-[(1-methyl-1H-pyrazol-4-yl)amino]pyrazine-2-carboxamide]	≤ 0.01 µM	0.1 to 1 µM	1 to 10 µM	0.01 to 0.1 µM	0.1 to 1 µM
C[C@@H]1[C@H](NC(=O)c2ccc(C(N)=O)cc2)CCCN1c1cnc(C(N)=O)c(Nc2cnn(C)c2)n1 [Example D-268, 1-N-[(2R,3R)-1-{5-carbamoyl-6-[(1-methyl-1H-pyrazol-4-yl)amino]pyrazin-2-yl}-2-methylpiperidin-3-yl]benzene-1,4-dicarboxamide]	≤ 0.01 µM	0.1 to 1 µM	1 to 10 µM	0.01 to 0.1 µM	0.1 to 1 µM
COCCN(C)Cc1cc(Nc2nc(N3CCC[C@@H](NC(=O)c4ccc(C5CC5)cc4)[C@H]3C)cnc2C(N)=O)sn1 [Example D-269, 5-[(2R,3R)-3-(4-cyclopropylbenzamido)-2-methylpiperidin-1-yl]-3-[(3-{[(2-methoxyethyl)(methyl)amino]methyl}-1,2-thiazol-5-yl)amino]pyrazine-2-carboxamide]	0.1 to 1 µM	> 10 µM	1 to 10 µM	0.01 to 0.1 µM	0.1 to 1 µM
Cc1c(Nc2nc(N3CCC[C@@H](NC(=O)c4ccc(C5CC5)cc4)[C@H]3C)cnc2C(N)=O)cnn1C [Example D-271, 5-[(2R,3R)-3-(4-cyclopropylbenzamido)-2-methylpiperidin-1-yl]-3-[(1,5-dimethyl-1H-pyrazol-4-yl)amino]pyrazine-2-carboxamide]	1 to 10 µM	1 to 10 µM	> 10 µM	1 to 10 µM	> 10 µM

Continued, values first:

IC50 [1]	IC50 [2]	IC50 [3]	IC50 [4]	IC50 [5]	Compound
≤ 0.01 µM	1 to 10 µM	1 to 10 µM	0.01 to 0.1 µM	0.01 to 0.1 µM	C[C@@H]1[C@H](NC(=O)c2ccc3nccn3c2)CCCN1c1cnc(C(N)=O)c(Nc2cnn(C)c2)n1 [Example D-266, 5-[(2R,3R)-3-(imidazo[1,2-a]pyridine-6-amido)-2-methylpiperidin-1-yl]-3-[(1-methyl-1H-pyrazol-4-yl)amino]pyrazine-2-carboxamide]
≤ 0.01 µM	0.1 to 1 µM	1 to 10 µM	0.01 to 0.1 µM	0.1 to 1 µM	C[C@@H]1[C@H](NC(=O)c2ccc3nn(C)cc3c2)CCCN1c1cnc(C(N)=O)c(Nc2cnn(C)c2)n1 [Example D-267, N-[(2R,3R)-1-{5-carbamoyl-6-[(1-methyl-1H-pyrazol-4-yl)amino]pyrazin-2-yl}-2-methylpiperidin-3-yl]-2-methyl-2H-indazole-5-carboxamide]
0.1 to 1 µM	1 to 10 µM	1 to 10 µM	0.1 to 1 µM	0.1 to 1 µM	COCCn1cc(Nc2nc(N3CCC[C@@H](NC(=O)c4ccc(C5CC5)cc4)[C@H]3C)cnc2C(N)=O)cn1 [Example D-270, 5-[(2R,3R)-3-(4-cyclopropylbenzamido)-2-methylpiperidin-1-yl]-3-{[1-(2-methoxyethyl)-1H-pyrazol-4-yl]amino}pyrazine-2-carboxamide]
